For one molecule, Kd results are on record in paper PMC8564113, “Erianin: A Direct NLRP3 Inhibitor With Remarkable Anti-Inflammatory Activity” (Frontiers in Immunology, 2021).

The structures appear in SMILES notation.

For this assay, the target named is T1, NLRP3 (Homo sapiens, UniProt Q96P20).
T1 construct: purified human GST-NLRP3
Briefly: microscale thermophoresis with purified GST-NLRP3; also biotin-Eri pull-down and ATPase inhibition. Format: binding. On the technique in general: Microscale thermophoresis detects binding through changes in fluorescence in a small temperature gradient.

T1 sequence (Q96P20 whole entry): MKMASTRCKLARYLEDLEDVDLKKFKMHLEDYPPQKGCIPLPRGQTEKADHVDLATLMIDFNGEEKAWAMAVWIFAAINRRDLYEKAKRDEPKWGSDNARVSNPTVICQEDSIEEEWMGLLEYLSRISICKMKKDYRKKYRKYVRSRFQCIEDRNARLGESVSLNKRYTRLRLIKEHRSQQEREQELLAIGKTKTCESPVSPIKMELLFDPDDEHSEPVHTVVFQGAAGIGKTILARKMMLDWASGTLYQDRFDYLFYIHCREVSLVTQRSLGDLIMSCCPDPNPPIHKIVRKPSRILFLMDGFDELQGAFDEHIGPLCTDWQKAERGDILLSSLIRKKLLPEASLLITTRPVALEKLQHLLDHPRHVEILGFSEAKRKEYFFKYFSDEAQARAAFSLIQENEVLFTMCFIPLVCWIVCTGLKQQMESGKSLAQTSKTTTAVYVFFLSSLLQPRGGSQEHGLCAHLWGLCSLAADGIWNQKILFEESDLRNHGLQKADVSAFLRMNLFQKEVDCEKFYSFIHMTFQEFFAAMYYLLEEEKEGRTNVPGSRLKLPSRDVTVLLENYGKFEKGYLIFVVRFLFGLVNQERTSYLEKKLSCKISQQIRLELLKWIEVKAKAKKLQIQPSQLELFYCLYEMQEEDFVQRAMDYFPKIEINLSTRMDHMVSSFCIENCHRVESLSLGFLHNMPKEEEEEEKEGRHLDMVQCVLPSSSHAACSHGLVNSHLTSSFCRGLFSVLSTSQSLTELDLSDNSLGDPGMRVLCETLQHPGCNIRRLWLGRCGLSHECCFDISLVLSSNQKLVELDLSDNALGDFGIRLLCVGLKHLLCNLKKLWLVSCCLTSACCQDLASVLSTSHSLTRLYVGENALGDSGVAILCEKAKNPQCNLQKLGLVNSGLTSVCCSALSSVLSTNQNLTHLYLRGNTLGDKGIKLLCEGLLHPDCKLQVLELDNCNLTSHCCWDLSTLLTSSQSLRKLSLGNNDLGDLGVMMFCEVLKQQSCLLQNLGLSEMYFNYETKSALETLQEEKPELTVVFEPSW

The term Kd denotes the constant that tells how readily two partners part at equilibrium. Low readings indicate higher affinity, high ones lower affinity. Molecule `COc1ccc(CCc2cc(OC)c(OC)c(OC)c2)cc1O` [Eri, Erianin] came in with an equilibrium dissociation constant (Kd) of about 50 nM.
